The results in this text go back to paper PMC6747525, “Chk1 Inhibitor MK-8776 Restores the Sensitivity of Chemotherapeutics in P-glycoprotein Overexpressing Cancer Cells” (International Journal of Molecular Sciences, 2019).

For data set [1], the target named is T1, P-glycoprotein (P-gp) (Homo sapiens, UniProt P08183).
T1 construct: gene ABCB1
Kind of data set: biochemical.

The target of data set [2] is T1, P-glycoprotein (P-gp).

What is called EC50 is the midpoint of the concentration-response curve. A lower EC50 goes with higher potency in that assay.

The structures appear in SMILES notation.

T1 sequence (P08183 whole entry): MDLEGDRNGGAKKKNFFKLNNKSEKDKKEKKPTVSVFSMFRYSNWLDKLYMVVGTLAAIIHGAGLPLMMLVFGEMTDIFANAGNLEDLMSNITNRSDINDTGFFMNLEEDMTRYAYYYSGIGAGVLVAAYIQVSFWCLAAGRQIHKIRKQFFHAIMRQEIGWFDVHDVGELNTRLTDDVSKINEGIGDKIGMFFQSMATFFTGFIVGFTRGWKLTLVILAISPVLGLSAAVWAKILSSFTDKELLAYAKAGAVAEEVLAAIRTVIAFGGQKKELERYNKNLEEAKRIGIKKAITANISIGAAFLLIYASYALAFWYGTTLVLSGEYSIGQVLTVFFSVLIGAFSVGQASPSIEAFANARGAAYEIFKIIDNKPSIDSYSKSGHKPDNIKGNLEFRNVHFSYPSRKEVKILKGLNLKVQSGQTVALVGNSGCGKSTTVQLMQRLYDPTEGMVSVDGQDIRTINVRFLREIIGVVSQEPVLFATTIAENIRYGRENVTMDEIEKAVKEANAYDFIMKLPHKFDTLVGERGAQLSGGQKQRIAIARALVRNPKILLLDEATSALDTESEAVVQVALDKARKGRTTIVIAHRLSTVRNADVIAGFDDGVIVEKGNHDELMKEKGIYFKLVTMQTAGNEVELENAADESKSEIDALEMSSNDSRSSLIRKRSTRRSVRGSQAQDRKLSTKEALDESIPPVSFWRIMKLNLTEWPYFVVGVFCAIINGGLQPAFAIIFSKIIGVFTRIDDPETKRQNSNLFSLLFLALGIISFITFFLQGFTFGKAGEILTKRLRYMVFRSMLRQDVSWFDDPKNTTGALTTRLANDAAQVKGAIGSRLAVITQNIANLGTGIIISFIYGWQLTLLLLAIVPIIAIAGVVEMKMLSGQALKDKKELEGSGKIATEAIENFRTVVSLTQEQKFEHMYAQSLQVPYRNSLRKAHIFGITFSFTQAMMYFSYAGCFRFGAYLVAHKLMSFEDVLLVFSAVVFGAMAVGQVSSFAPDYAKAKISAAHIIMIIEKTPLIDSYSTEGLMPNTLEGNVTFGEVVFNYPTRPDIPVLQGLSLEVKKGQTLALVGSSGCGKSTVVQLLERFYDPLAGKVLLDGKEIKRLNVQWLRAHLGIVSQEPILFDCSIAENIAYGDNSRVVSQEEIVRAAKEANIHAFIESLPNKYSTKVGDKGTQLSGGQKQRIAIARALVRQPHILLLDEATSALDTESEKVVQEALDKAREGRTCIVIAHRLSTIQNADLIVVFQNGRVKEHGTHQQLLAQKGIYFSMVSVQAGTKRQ

In turn, `Cn1cc(-c2cnn3c(N)c(Br)c([C@@H]4CCCNC4)nc23)cn1` [MK-8776] returned an EC50 on P-glycoprotein (P-gp) [1] of 3.8 µM. As to `CC(=O)O[C@H]1C(=O)[C@@]2(C)[C@H]([C@H](OC(=O)c3ccccc3)[C@]3(O)C[C@H](OC(=O)[C@H](O)[C@@H](NC(=O)c4ccccc4)c4ccccc4)C(C)=C1C3(C)C)[C@]1(OC(C)=O)CO[C@@H]1C[C@@H]2O` [paclitaxel], the “[3H]-paclitaxel accumulation and efflux in P-gp-overexpressing KB-C2 versus pare” value on P-glycoprotein (P-gp) [2] is “[^3H]-paclitaxel efflux increased significantly compared with that in their parental KB-3-1 cells”.
